Laboratory results from patent US20080051451A1, “Autoimmune conditions and NADPH oxidase defects” (priority 2006, published 2008).

Key:
[1] = test system: NADPH oxidase; experiment: Oxidative burst response to PMA in spleen granulocytes after s.c. injection in vivo; parameters: species or system Rat (Rattus norvegicus); conditions: spleen granulocytes 5 days after s.c. injection (200 μl) in DA.Ncf1^DA rats, PMA stimulation, compared to naive DA.Ncf1^DA and DA.Ncf1^E3
Experimental: The term DA.Ncf1^DA rats designates DA rats carrying the Ncf1 DA allele with impaired NADPH oxidase capacity and the term DA.Ncf1^E3 rats designates DA rats carrying the Ncf1^E3 allele with functional NADPH oxidase capacity (Olofsson & Holmdahl (2003) Scand J Immunol 58:155-164).
Oxidative burst response to PMA stimulation in vitro in spleen granulocytes taken 5 days after s.c. phytol injection in DA.Ncf1^DA rats (200 μl) compared to naive DA.Ncf1^DA and DA.Ncf1^E3 (n=5) (FIG. 3).

[2] = Biodistribution of 3H-labelled phytol; type: in vivo, Rat (Rattus norvegicus)
Experimental: DA rats originating from Harlan Netherlands (N=4 rats per group) injected with compound 1 (phytol) mixed with radiolabelled compound 1 (phytol) (Moravek Biochemicals, CA) to a total volume of […] at 167 μCi/rat with ^3H-Phytol. At sacrifice at day 2, 4, 8, 11 and 17, respectively, inguinal lymph nodes, spleen, heart, thymus, kidney, liver, lung, adipose tissue, muscle, injection site tissue and blood were collected in equal amount of saline solution in pre-weight tubes (blood with heparin to prevent coagulation). The tissues were homogenized and mixed with ready-safe scintillation liquid (Beckman Coulter, CA). Biodistribution was estimated as relative CPM per gram tissue.

[3] = test system: DA.Ncf1^DA rats; experiment: Pristane induced arthritis (PIA) in DA.Ncf1^DA rats; type: in vivo, Rat (Rattus norvegicus)
Experimental: Treatments with compound 1 (phytol) or compound 5 (phytyl acetate) were administered to DA.Ncf1^DA rats as 100 μl subcutaneous injections in the neck at day 8 and 10 after arthritis induction (untreated control (◯), compound 1 (phytol) (♦) and compound 5 (phytyl acetate) (▴)) (FIG. 9).
Treatments with compound 2 (farnesol) or compound 4 (farnesylacetate) were administered to DA.Ncf1^DA rats as 100 μl subcutaneous injections in the neck at day 8 and 10 after arthritis induction, (untreated control (◯), compound 2 (farnesol) (▪) and compound 4 (farnesylacetate) (▴)) (FIG. 11).
Treatments with compound 1 (phytol), compound 6 (di-hydro-phytol, compound 5 (phytyl acetate), or compound 7 (di-hydro-phytyl acetate were administered to DA.Ncf1^DA rats as 100 μl subcutaneous injections in the neck at day 8 and 10 after arthritis induction, (untreated control (◯), compound 1 (phytol) (♦), compound 6 (di-hydro-phytol (▪), compound 5 (phytyl acetate) (▴) or compound 7 (di-hydro-phytyl acetate (●)) (FIG. 12).
Treatments of DA.Ncf1^DA rats with compound 1 (phytol) mixed in the food for continuous uptake compared with Omega3 fatty acids, (untreated control (◯), Omega3 fatty acid (□), phytol 1% daily (♦), phytol 1% every 2'nd day (▴), or phytol 1% initiated day 7 after arthritis induction (▪)) (FIG. 13).
Treatments of DA.Ncf1^DA rats with compound 5 (phytyl acetate) mixed in the food for daily uptake, (untreated control (◯), compound 1 (phytol) 1% daily (♦), or compound 5 (phytyl acetate) 1% daily (▴)) (FIG. 14).
Treatments with compound 1 (phytol) at 1.6 or 2.3 g/kg/day administered to DA.Ncf1^DA rats by oral gavage given by dosing every second day with compound 1 (phytol) […] (♦), compound 1 (phytol) […] (▴) or untreated control (◯).
Treatments of DA.Ncf1^DA rats with compound 1 (phytol) or compound 9 (isophytol) mixed in the food for continuous uptake compared with fenofibrate, (compound 1 (phytol) 500 mg/kg/day (♦), compound 9 (isophytol) 500 mg/kg/day (▴), or fenofibrate 100 mg/kg/day (□). Untreated control (◯).) (see FIG. 17).

[4] = test system: DA.Ncf1^DA rats; experiment: Collagen induced arthritis (CIA) with oil adjuvant; type: in vivo, Rat (Rattus norvegicus)
Experimental: Collagen induced arthritis (CIA) was induced by an s.c. injection of 100 μl of rat collagen type II (CII; 100 μg/rat-150 μg/rat), emulsified in incomplete Freund's adjuvant (IFA; Sigma Aldrich) (FIG. 7).
Effect of s.c. administration of phytol (200 μl) 5 days.
At day 27 after immunization, sera were taken and analyzed for anti-CII IgG levels (n=7). Titers are relative to pooled positive sera (units).

[5] = test system: DA.Ncf1^DA rats; experiment: Experimental allergic encephalomyelitis (EAE) in vivo; parameters: species or system Rat (Rattus norvegicus); conditions: 200 μL injected at the base of the tail at day 0; scored 40 days; p<0.01 vs untreated control
Experimental: At day 0, all rats were treated (immunized) with 200 μL SCH (DA.Ncf1^DA spinal cord homogenate, to induce EAE) i.d. at the base of the tail. The rats were then scored according to the following scale for 40 days: • 0=Normal • 1=Tail weakness • 2=Tail paralysis • 3=Tail paralysis and mild […] • 4=Tail paralysis and severe […] • 5=Tail paralysis and paralysis of one limb • 6=Tail paralysis and paralysis of a pair of limbs • 7=Tetra-paresis • 8=Pre-morbid or dead. […] EAE began to appear around day 6.

[6] = Arthritogenicity / arthritis effect (general statement); type: in vivo; conditions: general statement in Example 3
[7] = test system: DA.Ncf1^DA rats; experiment: Pristane induced arthritis (PIA) in DA.Ncf1^DA rats; type: in vivo, Rat (Rattus norvegicus); remark: listed apart in the source
[8] = test system: Lewis.IF rat; experiment: Pristane induced arthritis (PIA) in Lewis.IF rats; conditions: 200 μl s.c. 5 days before induction of PIA
Experimental: (§1) Disease was induced in all rats at the age of 6-12 weeks. Arthritis development was monitored with a macroscopic scoring system of the four limbs ranging from 0 to 15 (1 point for each swollen or red toe, 1 point for midfoot digit or knuckle, 5 points for a swollen ankle). The scores of the four paws were added yielding a maximum total score of 60 for each rat.
(§2) Therapeutic treatments were administered s.c. or intra peritoneal (i.p.; 200 μl) after onset of disease in the acute or chronic phase (FIG. 6).

[9] = test system: Rats heterozygous for the functional Ncf1 (Ncf1^E3) allele with Pia3 locus; experiment: Pristane induced arthritis (PIA) in rats with a functional oxidative burst; conditions: injected i.p. (200 μl) at the estimated peak of disease
Experimental: as §1, §2

[10] = test system: HL-60 cells; experiment: Oxidative burst assay of granulocytes in vitro (isoluminol, extra-cellular ROS); conditions: HL-60 differentiated to granulocytes, 50 minutes, 37° C.
Experimental: The human myeloma cell line HL-60 (ATCC, CCI-240) was cultured in D-MEM (Gibco, Paisley, UK) complemented with 10% fetal calf serum and Penicillin-Streptomycin. […] Before assaying the cells were washed and resuspended in PBS to a concentration of 10^7 cells/ml.
Briefly, 5 μl of resuspended oils were added into 96-well plates containing 5×10^5 cells/well in a total volume of 200 μl PBS/well (final concentration isoluminol 50 μg/ml; Sigma Aldrich) and horse radish peroxidase (type II 2,5 U/ml; Sigma Aldrich). Samples were gently mixed and the data collection was initiated immediately. Extra-cellular ROS production was followed at 37° C. as produced luminescence signal (FluoStar Optima, BMG Labtechnologies, Offenburg, Germany) and presented as maximal relative signal during a measurement period of 50 minutes.
The cells were differentiated to granulocytes by culture in presence of 1,25% dimethylsulfoxide (DMSO; Sigma Aldrich Inc., Milwaukee, Wis.) for six days.

[11] = relative CPM per gram tissue, day 2, 4, 8, 11, 17

## C/C(=C\CO)CCCC(C)CCCC(C)CCCC(C)C (stereo not shown) [compound 1, 3,7,11,15-Tetramethyl-2-hexadecen-1-ol]
[1]
  Oxidative burst / NADPH oxidase capacity in vivo: restores to NADPH oxidase capacity to a level comparable to the level of NADPH oxidase capacity in rats with a functional oxidative burst
[1]; listed as Phytol
  Oxidative burst / NADPH oxidase capacity in vivo: restores the oxidative burst defect in vivo
[2]; DA rats, 3H-Phytol injection
  fraction remaining as a depot in the injection site: > 90%
[2]; rat, in vivo
  cellular localisation of staining in lymph nodes: in-between cells or in the cell membrane, i.e. not intracellular
  distribution within the draining lymph nodes: distributed primarily to the cortical regions as well as close to the sinusoidal space of the draining lymph nodes
[2]; [11]
  primary tissue for accumulation: draining lymph nodes were the primary tissue for accumulation
  time course of distribution to the inguinal lymph nodes: highest accumulation more than one week after injection and showed a decrease after two weeks
[3]; 100 μl subcutaneous injections in the neck at day 8 and 10 after arthritis induction
  severity of PIA, therapeutic effect: therapeutic effects
[3]; mixed in the food for continuous uptake, 500 mg/kg/day
  severity of PIA, oral administration in food 500 mg/kg/day: reduced the severity of arthritis
[3]; mixed in the food for daily uptake, 1% daily
  severity of PIA, oral administration in food 1% daily: reducing the severity of arthritis
[3]; oral gavage every second day, both doses
  adverse effect of the high doses (macroscopic observation, postmortem dissection): No adverse effect
[3]; phytol 1% daily, 1% every 2'nd day, or 1% initiated day 7 after arthritis induction
  severity of PIA, oral administration in food, three regimes: reduced the severity of arthritis
[4]; day 27 after immunization
  anti-CII antibody (IgG) levels in serum: decreases anti-CII antibody levels in serum
[4]; s.c. administration (200 μl) 5 days before immunization with CII
  severity of collagen-induced arthritis: prevents collagen-induced arthritis
[5]
  severity of inflammatory and paralyzing symptoms of EAE (score 0-8): significant difference in severity of inflammatory and paralyzing symptoms of EAE
[6]
  arthritis ameliorating effects: arthritis ameliorating effects
  arthritogenicity: non arthritogenic
[7]; both doses, every second day (1.6 and 3.2 mg/kg as printed elsewhere in the source)
  severity of PIA, oral gavage: potent arthritis ameliorating effect
[7]; injected i.p. twice (200 μl) starting day 70, three days between treatments
  severity of arthritis, chronic phase of PIA: decreases arthritis severity in the chronic phase of arthritis
[7]; injected s.c. day -5 prior to pristane injection
  severity of PIA (arthritis score), preventive: inhibits development of arthritis
[7]; sera taken day 38, treatment from day 22
  cartilage destruction (serum COMP levels): Cartilage destruction is decreased
[7]; two injections (200 μl, s.c. or i.p.) with 5 days in between starting day 22
  severity of arthritis, acute phase of established PIA: ameliorates disease in the acute phase of arthritis
[8]
  severity of PIA, preventive, Lewis.IF rat: arthritis preventing effect
[9]
  severity of arthritis in rats with a functional oxidative burst: arthritis ameliorating effect
[10]
  Extra-cellular ROS production (maximal relative luminescence signal): strong ROS production
